Data: patent publication US11427548B2 (Arvinas Operations, Inc., priority 2015, dated 2022)

Molecular target: T1, Androgen Receptor (Homo sapiens, UniProt P10275)
T1 construct: endogenous in cells; host or cells: VCaP cells
T1 sequence (P10275 1-920): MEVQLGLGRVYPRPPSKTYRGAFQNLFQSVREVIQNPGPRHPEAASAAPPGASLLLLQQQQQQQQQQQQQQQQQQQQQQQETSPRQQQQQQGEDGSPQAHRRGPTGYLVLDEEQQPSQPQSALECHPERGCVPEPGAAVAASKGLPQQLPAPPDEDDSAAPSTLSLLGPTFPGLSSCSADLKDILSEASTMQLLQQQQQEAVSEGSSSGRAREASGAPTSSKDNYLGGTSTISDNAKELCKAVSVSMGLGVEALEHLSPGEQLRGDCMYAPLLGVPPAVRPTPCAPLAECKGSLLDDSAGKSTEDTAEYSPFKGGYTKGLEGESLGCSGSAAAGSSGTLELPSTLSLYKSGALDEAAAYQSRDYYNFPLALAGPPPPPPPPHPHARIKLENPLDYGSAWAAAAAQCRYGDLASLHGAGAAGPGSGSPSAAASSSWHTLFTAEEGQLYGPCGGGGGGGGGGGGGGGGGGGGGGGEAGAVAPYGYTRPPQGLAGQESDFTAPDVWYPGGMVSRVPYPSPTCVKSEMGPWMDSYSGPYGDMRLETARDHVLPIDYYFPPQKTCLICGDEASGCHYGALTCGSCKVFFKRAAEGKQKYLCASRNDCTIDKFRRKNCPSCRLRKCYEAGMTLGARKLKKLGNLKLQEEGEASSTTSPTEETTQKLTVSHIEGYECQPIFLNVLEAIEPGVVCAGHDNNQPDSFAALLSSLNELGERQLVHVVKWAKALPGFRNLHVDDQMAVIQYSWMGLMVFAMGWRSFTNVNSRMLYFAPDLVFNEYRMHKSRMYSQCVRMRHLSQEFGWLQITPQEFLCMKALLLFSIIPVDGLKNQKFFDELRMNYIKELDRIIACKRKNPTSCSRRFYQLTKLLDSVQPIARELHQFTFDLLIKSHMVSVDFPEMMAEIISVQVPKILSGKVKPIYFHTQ
Assay: Androgen Receptor ELISA assay (PathScan AR ELISA) in VCaP cells: AR degradation, Dmax and DC50
Format: cell-based
Details: VCaP cells, Table 36; for DC50: read-out: VCaP DC50; for Dmax: VCaP, read-out: VCaP Dmax (%)
Method in brief: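 After 24 h exposure of VCaP cells (charcoal-stripped serum, 0.1 nM R1881 agonist, 0.1% DMSO) to seven half-log compound concentrations, residual AR in lysates was measured by PathScan ELISA (TMB absorbance, 450 nm). Cells were plated at 30,000/well and grown at least 3 days beforehand.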

**Q.** For Cc1ncsc1-c1ccc(C(CO)NC(=O)[C@@H]2C[C@@H](O)CN2C(=O)[C@@H](NC(=O)CCCN2CCN(c3ccc(C(=O)N[C@H]4C(C)(C)[C@H](Oc5ccc(C#N)c(Cl)c5)C4(C)C)cn3)CC2)C(C)(C)C)cc1 (stereo partly drawn) [Example 781, N-((1r,3r)-3-(3-chloro-4-cyanophenoxy)-2,2,4,4-tetramethylcyclobutyl)-6-(4-(4-(((S)-1-((2S,4R)-4-hydroxy-2-(((R)-2-hydroxy-1-(4-(4-methylthiazol-5-yl)phenyl)ethyl)carbamoyl)pyrrolidin-1-yl)-3,3-dimethyl-1-oxobutan-2-yl)amino)-4-oxobutyl)piperazin-1-yl)nicotinamide], which DC50 is on record?
**A.** The DC50 was > 501 nM.

**Q.** What about the Dmax of the same compound?
**A.** Its Dmax is 26 to 50%.

**Q.** How did the DC50 turn out when Cc1ncsc1-c1ccc([C@H](C)NC(=O)C2C[C@@H](O)CN2C(=O)[C@@H](NC(=O)COCCN2CCCN(c3ccc(C(=O)N[C@H]4C(C)(C)[C@H](Oc5ccc(C#N)c(Cl)c5)C4(C)C)cn3)CC2)C(C)(C)C)cc1 (stereo partly drawn) [Example 782, N-((1r,3r)-3-(3-chloro-4-cyanophenoxy)-2,2,4,4-tetramethylcyclobutyl)-6-(4-(2-(2-(((S)-1-((2S,4R)-4-hydroxy-2-(((S)-1-(4-(4-methylthiazol-5-yl)phenyl)ethyl)carbamoyl)pyrrolidin-1-yl)-3,3-dimethyl-1-oxobutan-2-yl)amino)-2-oxoethoxy)ethyl)-1,4-diazepan-1-yl)nicotinamide] was run?
**A.** Its DC50 is < 50 nM.

**Q.** What about the Dmax of the same compound?
**A.** The Dmax was > 71%.

**Q.** How did the DC50 turn out when Cc1ncsc1-c1ccc([C@H](C)NC(=O)[C@@H]2C[C@@H](O)CN2C(=O)[C@@H](NC(=O)CN2CCN(CCCc3ccc(C(=O)N[C@H]4C(C)(C)[C@H](Oc5ccc(C#N)c(Cl)c5)C4(C)C)cc3)CC2)C(C)(C)C)cc1 [Example 783, (2S,4R)-1-((S)-2-(2-(4-(3-(4-(((1r,3r)-3-(3-chloro-4-cyanophenoxy)-2,2,4,4-tetramethylcyclobutyl)carbamoyl)phenyl)propyl)piperazin-1-yl)acetamido)-3,3-dimethylbutanoyl)-4-hydroxy-N-((S)-1-(4-(4-methylthiazol-5-yl)phenyl)ethyl)pyrrolidine-2-carboxamide] was run?
**A.** The DC50 was < 50 nM.

**Q.** And the Dmax?
**A.** The Dmax was > 71%.

**Q.** How did the DC50 turn out when COc1cc(C#N)ccc1[C@H](C)NC(=O)[C@@H]1C[C@@H](O)CN1C(=O)[C@@H](NC(=O)CCCCN1CCN(c2ccc(C(=O)N[C@H]3C(C)(C)[C@H](Oc4ccc(C#N)c(Cl)c4)C3(C)C)cn2)CC1)C(C)(C)C [Example 784, N-((1r,3r)-3-(3-chloro-4-cyanophenoxy)-2,2,4,4-tetramethylcyclobutyl)-6-(4-(5-(((S)-1-((2S,4R)-2-(((S)-1-(4-cyano-2-methoxyphenyl)ethyl)carbamoyl)-4-hydroxypyrrolidin-1-yl)-3,3-dimethyl-1-oxobutan-2-yl)amino)-5-oxopentyl)piperazin-1-yl)nicotinamide] was run?
**A.** Its DC50 is > 501 nM.

**Q.** And the Dmax?
**A.** Its Dmax is < 25%.

**Q.** With COc1cc(C#N)ccc1[C@H](C)NC(=O)[C@@H]1C[C@@H](O)CN1C(=O)[C@@H](NC(=O)COCCN1CCN(c2ccc(C(=O)N[C@H]3C(C)(C)[C@H](Oc4ccc(C#N)c(Cl)c4)C3(C)C)cn2)CC1)C(C)(C)C [Example 785, N-((1r,3r)-3-(3-chloro-4-cyanophenoxy)-2,2,4,4-tetramethylcyclobutyl)-6-(4-(2-(2-(((S)-1-((2S,4R)-2-(((S)-1-(4-cyano-2-methoxyphenyl)ethyl)carbamoyl)-4-hydroxypyrrolidin-1-yl)-3,3-dimethyl-1-oxobutan-2-yl)amino)-2-oxoethoxy)ethyl)piperazin-1-yl)nicotinamide] as the compound, how does the DC50 read?
**A.** Its DC50 is < 50 nM.

**Q.** And the Dmax?
**A.** Its Dmax is 51 to 70%.

**Q.** How did the DC50 turn out when Cc1ncsc1-c1ccc([C@H](C)NC(=O)C2C[C@@H](O)CN2C(=O)[C@@H](NC(=O)COCCN2[C@H](C)CN(c3ccc(C(=O)N[C@H]4C(C)(C)[C@H](Oc5ccc(C#N)c(Cl)c5)C4(C)C)cn3)C[C@@H]2C)C(C)(C)C)cc1 (stereo partly drawn) [Example 786, N-((1r,3R)-3-(3-chloro-4-cyanophenoxy)-2,2,4,4-tetramethylcyclobutyl)-6-((3S,5R)-4-(2-(2-(((2S)-1-((4R)-4-hydroxy-2-(((S)-1-(4-(4-methylthiazol-5-yl)phenyl)ethyl)carbamoyl)pyrrolidin-1-yl)-3,3-dimethyl-1-oxobutan-2-yl)amino)-2-oxoethoxy)ethyl)-3,5-dimethylpiperazin-1-yl)nicotinamide] was run?
**A.** Its DC50 is < 50 nM.

**Q.** What about the Dmax of the same compound?
**A.** The Dmax was > 71%.

**Q.** How did the “VCaP Dmax (%)” value turn out when Cc1ncsc1-c1ccc([C@H](C)NC(=O)C2C[C@@H](O)CN2C(=O)[C@@H](NC(=O)COCCN2C3CCC2CN(c2ccc(C(=O)NC4C(C)(C)C(Oc5ccc(C#N)c(Cl)c5)C4(C)C)cn2)C3)C(C)(C)C)cc1 (stereo partly drawn) [Example 787, N-((1r,3r)-3-(3-chloro-4-cyanophenoxy)-2,2,4,4-tetramethylcyclobutyl)-6-(8-(2-(2-(((2S)-1-((4R)-4-hydroxy-2-(((S)-1-(4-(4-methylthiazol-5-yl)phenyl)ethyl)carbamoyl)pyrrolidin-1-yl)-3,3-dimethyl-1-oxobutan-2-yl)amino)-2-oxoethoxy)ethyl)-3,8-diazabicyclo[3.2.1]octan-3-yl)nicotinamide] was run?
**A.** The value was “++++ (71% ≤ Dmax)”.

**Q.** And the DC50?
**A.** The DC50 was < 50 nM.

**Q.** For Cc1ncsc1-c1ccc([C@H](C)NC(=O)C2C[C@@H](O)CN2C(=O)[C@@H](NC(=O)COCCN2CCN(c3ccc(C(=O)N[C@H]4C(C)(C)[C@H](Oc5ccc(C#N)c(Cl)c5)C4(C)C)cn3)C[C@H]2CO)C(C)(C)C)cc1 (stereo partly drawn) [Example 788, N-((1r,3S)-3-(3-chloro-4-cyanophenoxy)-2,2,4,4-tetramethylcyclobutyl)-6-((3S)-4-(2-(2-(((2S)-1-((4R)-4-hydroxy-2-(((S)-1-(4-(4-methylthiazol-5-yl)phenyl)ethyl)carbamoyl)pyrrolidin-1-yl)-3,3-dimethyl-1-oxobutan-2-yl)amino)-2-oxoethoxy)ethyl)-3-(hydroxymethyl)piperazin-1-yl)nicotinamide], which DC50 is on record?
**A.** The DC50 was < 50 nM.

**Q.** What about the Dmax of the same compound?
**A.** Its Dmax is > 71%.

**Q.** Which DC50 does the source give for Cc1ncsc1-c1ccc([C@H](C)NC(=O)C2C[C@@H](O)CN2C(=O)C(NC(=O)CN2CCN(CCN3CCN(c4ccc(C(=O)N[C@H]5C(C)(C)[C@H](Oc6ccc(C#N)c(Cl)c6)C5(C)C)cn4)CC3)CC2)C(C)(C)C)cc1 (stereo partly drawn) [Example 789, N-((1r,3r)-3-(3-chloro-4-cyanophenoxy)-2,2,4,4-tetramethylcyclobutyl)-6-(4-(2-(4-(2-(((S)-1-((2S,4R)-4-hydroxy-2-(((S)-1-(4-(4-methylthiazol-5-yl)phenyl)ethyl)carbamoyl)pyrrolidin-1-yl)-3,3-dimethyl-1-oxobutan-2-yl)amino)-2-oxoethyl)piperazin-1-yl)ethyl)piperazin-1-yl)nicotinamide] here?
**A.** Its DC50 is < 50 nM.

**Q.** And the Dmax?
**A.** The Dmax was > 71%.

**Q.** Cc1ncsc1-c1ccc([C@H](C)NC(=O)[C@@H]2C[C@@H](O)CN2C(=O)[C@@H](NC(=O)COCCN2CCN(Cc3cc(C(=O)N[C@@H](C)Cn4ccc(-c5ccc(C#N)c(Cl)c5)n4)n[nH]3)CC2)C(C)(C)C)cc1 [Example 790, N-((S)-1-(3-(3-chloro-4-cyanophenyl)-1H-pyrazol-1-yl)propan-2-yl)-5-((4-(2-(2-(((S)-1-((2S,4R)-4-hydroxy-2-(((S)-1-(4-(4-methylthiazol-5-yl)phenyl)ethyl)carbamoyl)pyrrolidin-1-yl)-3,3-dimethyl-1-oxobutan-2-yl)amino)-2-oxoethoxy)ethyl)piperazin-1-yl)methyl)-1H-pyrazole-3-carboxamide] was tested. Which DC50 did it give?
**A.** The DC50 was > 501 nM.

**Q.** What about the Dmax of the same compound?
**A.** Its Dmax is 26 to 50%.
